Experimental findings from patent publication US7863446B2, “Heterocycles” (Orchid Research Laboratories Limited, priority 2006, dated 2011) are described below.

For assay [1], the system named is TNF-α. Nature of the assay: In vitro measurement of TNF-α in human PBMC (LPS stimulated). It counts as cell-based. Put shortly: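 Healthy-volunteer PBMC (0.5 million/well) in RPMI were pre-incubated with compound 15 min at 37 °C. They were then stimulated with E. coli B4 LPS 1 μg/ml for 18 h at 37 °C, 5% CO2. TNF-α in culture medium was measured by ELISA.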
Assay [2] concerns TNF-α. Briefly: LPS induced sepsis for measurement of TNF-α inhibition in mice. The settings on record: Mus musculus; TNF alpha inhibition in mice sepsis model. It counts as in vivo. The protocol:
LPS Induced Sepsis for Measurement of TNF-α Inhibition in Mice
The LPS induced sepsis model in mice was performed as described by Les sekut et al (J Lab Clin Med 1994; 124:813-20). Female Swiss albino mice were selected and the body weights were equivalent within each group. The mice were fasted for 20 hours with free access to water. The mice were dosed orally with the test compound suspended in vehicle containing 0.5% Tween 80 in 0.25% Carboxy-methylcellulose sodium salt. The control mice were administered the vehicle alone. After 30 minutes of oral dosing, mice were injected with 500 μg of Lipopolysaccharide (Escherichia coli, LPS: B4 from Siga) in phosphate buffer saline solution into the intraperitoneal cavity of the mice. After 90 minutes of LPS administration mice were bled via retro-orbital sinus puncture. Blood samples were stored overnight at 4° C. Serum samples were collected by centrifuging the samples at 4000 rpm for 15 minutes at 4° C. Immediately the serum samples were analysed for TNF-α levels using commercially available mouse TNF-α ELISA kit (Amersham Biosciences) and assay was performed by the manufacturer instruction.
ED50 Measurement of TNF alpha Inhibition in Mice Sepsis Model

The test system of another assay is Male Balbc mice. Briefly: IBD-DSS model (DSS induced colitis). In kind it is in vivo. Conditions: Day 1 to 6, mice. The protocol:
Inhibitory Activity in IBD-DSS Model
DSS Induced colitis test was performed as described by Axelsson et al., 1998. Male Balbc mice were selected in the age of 7-8 weeks for the study. Colitis in mice was induced by providing DSS (2%) in the drinking water from day 1 to 6. Mice were dosed from Day 1 to 6 with test compound suspended in vehicle containing 0.25% carboxymethyl cellulose and 0.5% Tween 80. The control animals received vehicle alone. Body weight and disease activity index was recorded daily during the experiment. After 6 days of treatment, animals were sacrificed; colon weight and colon length was recorded.

For a further assay, the system named is Female Balb C. Briefly: Psoriasis model (oxazolone induced dermatitis in mice). It counts as in vivo. The settings on record: topical on the ear, 24 hours after oxazolone. The protocol:
Inhibitory Activity in Psoriasis Model
Oxazolone induced dermatitis in mice was performed as described in the literature. Female Balb C were selected in the age of 6-7 weeks for the study and 20-25 g. Mice were sensitized with oxazolone (15%) from Day 1 to day 6 by applying it on the shaved abdomen. Elicitation was done with oxazolone (2%) on the ear on day 7. Test compounds were applied topically on the ear 15 minutes and 6 hours post oxazolone application on day 7. 24 hours after oxazolone application, ear thickness is measured and ear were excised under anesthesia and weighed.

Structures are written as SMILES.

Take `NS(=O)(=O)c1cccc(-c2c(-c3ccc(F)cc3)nc(C(F)(F)F)nc2-n2ccnc2)c1` [Example 80, 3-[4-(4-Fluorophenyl)-6-(1H-imidazol-1-yl)-2-(trifluoromethyl)pyrimidin-5-yl]benzenesulfonamide]: the inhibition at 1 µM in the assay on TNF-α [1] (1 μM, NA = No activity, read-out: TNF-α Inhibition (%) at Conc. (1 μM)) was determined as 30%. Moreover, the inhibition at 10 µM in the assay on TNF-α [1] (10 μM, read-out: TNF-α Inhibition (%) at Conc. (10 μM)) came to 75.3%. The compound further returned an ED50 with TNF-α [2] of 2.13 mg/kg. In the assay on Male Balbc mice, the “IBD-DSS Model % Inhibition of DAI at 50 mg/kg” value was 35.94%. Further, in the assay with Female Balb C, the “Psoriasis-acute-Oxazolone induced dermatitis % inhibition Ear Thick” value stood at 19.2% and the “Psoriasis-acute-Oxazolone induced dermatitis % inhibition Ear Wt” value worked out at 18.9%.
